{"source": "patent US20210378193A1", "about": "“HAPLOID EMBRYOGENESIS” (STICHTING WAGENINGEN RESEARCH, priority 2013, published 2021)", "key": {"histone H3 and H4": {"test_system": "histone H3 and H4", "test": "Western blot of protein and histone acetylation in B. napus microspore cultures", "format": "cell-based, Brassica napus", "procedure": "Freshly isolated microspores and microspores cultured for 8 hours under different experimental conditions were harvested by centrifugation. Proteins were extracted by boiling in SDS-sample buffer (30 μl per ml of culture) and electrophoresed in a Midget 12.5% SDS-PAGE gel under reducing conditions. After transfer of the proteins to PVDF membrane and blocking with 5% milk powder in PBS, 0.1% Tween 20, the blots were incubated for 2 hours with primary antibody (1:2000 dilution). The primary antibodies used in this study are as follows: anti-acetyl-Lysine (ICP0380; ImmuneChem Pharmaceuticals), anti-Histone H3 (ab1791; Abcam), anti-Histone H4 (clone 62-141-13; Millipore), and anti-acetyl-Histone H3 and anti-acetyl-Histone H4 (Millipore). Secondary goat anti-rabbit-HRP antibody (Sigma) was used in a 1:2000 dilution, and signals were detected by using enhanced chemiluminescence (SuperSignal West Femto Chemiluminescent Substrate, Pierce). An acetylated lysine antibody was used in combination with protein gel blotting to identify proteins whose acetylation status changes in 8-hour heat-stress plus TSA-treated B. napus microspore cultures compared to heat-stressed control cultures. […] Panels show: (A)=Western blot of total acetylated proteins in microspore cultures treated for eight hours with DMSO (control) or TSA—proteins in the range of 10-25 kDa are differentially acetylated after TSA treatment compared to the control; (B)=Western blot of total and acetylated (Ac) histone H3 and H4 in microspore cultures treated for eight hours with DMSO (control) or TSA. The percentages of sporophytic divisions in the different cultures at day 5 are shown under each sample. […] The acetylation status of histones H3 and H4 was determined during microspore culture using acetylated histone H3 (Ac-H3) and H4 (Ac-H4) antibodies. Microspore cultures were started from buds containing mostly binucleate pollen and placed for eight hours at either 18° C. or 33° C. with or without 0.5 μM TSA. […] (FIG. 8B)."}, "[1]": {"test_system": "Capsicum annuum microspore cultures", "test": "Capsicum annuum microspore culture, embryogenic microspores and embryos per bud", "format": "cell-based", "conditions": "TSA during the first 20 hours", "procedure": "Microspore cultures were performed accordingto Kim M, Jang 1-C, Kim J-A, Park E-J, Yoon M, Lee Y (2008) “Embryogenesis and plant regeneration of hot pepper (Capsicum annuum L.) through isolated microspore culture”: Plant Cell Rep 27 (3):425-434. Flower buds containing vacuolate microspores were selected according to Parra-Vega V, Gonzalez-Garcia B, Segui-Simarro J M (2013) “Morphological markers to correlate bud and anther development with microsporogenesis and microgametogenesis in pepper (Capsicum annuum L.)”: Acta Physiol Plant 35 (2):627-633. Except for “Control” and “DMSO,” the microspores were exposed to TSA (diluted in DMSO) during the first 20 hours of culture.\nCultures were performed according to Kim M, Jang 1-C, Kim J-A, Park E-J, Yoon M, Lee Y (2008) “Embryogenesis and plant regeneration of hot pepper (Capsicum annuum L.) through isolated microspore culture”; Plant Cell Rep 27 (3):425-434. Flower buds containing […] microspores were selected according to Parra-Vega V, Gonzalez-Garcia B, Segui-Simarro JM (2013) “Morphological markers to correlate bud and anther development with microsporogenesis and microgametogenesis in pepper (Capsicum annuum L.)”: Acta Physiol Plant 35 (2):627-633. Except for “Control” and “DMSO,” the microspores were exposed to TSA (diluted in DMSO) during the first 20 hours of culture."}, "[2]": {"test_system": "Arabidopsis immature male gametophytes", "test": "Arabidopsis anther culture, sporophytic division of immature male gametophytes", "format": "cell-based", "conditions": "Col0 anthers, 25° C., 0.5 μM TSA, five days; never observed without TSA", "procedure": "Arabidopsis flower buds at stage 11 were collected for anther culture. Flower buds were surface sterilized in 2% bleach for 10 minutes, then rinsed three times in distilled water. The anthers (without filament) were placed in a liquid NLN-13 medium containing 0.5 μM TSA or the same volume of DMSO and then cut in half transversely in the medium to release the microspores. The cultures were placed at 25° C. for 20 hours in the dark. The medium was then replaced by fresh NLN-13 medium by pipetting gently, and the cultures incubated at 25° C. for an additional four days. Free and loosely attached microspores were collected and stained with DAPI. Arabidopsis hda T-DNA insertion lines were obtained from Nottingham Arabidopsis Stock Centre. At least 300 microspores per sample were counted.\nMulticellular structures that resemble the Type II and IV structures seen in Brassica microspore culture are produced when stage 11 Arabidopsis anthers are cultured at 25° C. with 0.5 μM TSA. […] TSA induces embryogenic cell divisions in Arabidopsis immature male gametophytes. Panels show: (A)=DAPI stained anther in TSA-treated culture showing multicellular, sporophytic structures derived from immature male gametophytes (arrow). […] (B)=cleared anther from a control culture showing lack of sporophytic cell proliferation. […]"}}}
{"compound": "CC(/C=C/C(=O)NO)=C\\[C@@H](C)C(=O)c1ccc(N(C)C)cc1", "note": "[TSA, trichostatin A]", "values": [{"measurement": "total amount of histone H3 and H4", "setting": "histone H3 and H4; 0.5 μM TSA, eight hours", "value": "no clear effect"}, {"measurement": "sporophytic divisions compared to untreated controls", "setting": "histone H3 and H4; 0.5 μM TSA, eight hours at 18° C. and 33° C., divisions at day 5", "value": "greatly enhanced"}, {"measurement": "level of histone H3 and H4 acetylation relative to control", "setting": "histone H3 and H4; 0.5 μM TSA, eight hours, 18° C. and 33° C.", "value": "increased dramatically"}, {"measurement": "acetylation of small molecular weight proteins in the range of 10-25 kDa", "setting": "histone H3 and H4; 8-hour heat-stress plus TSA versus heat-stressed control", "value": "Increased protein acetylation"}, {"measurement": "number of embryogenic cells compared to the control", "setting": "[1]; 10-day-old cultures", "value": "enhances"}, {"measurement": "embryo yield (embryos per bud) compared to the control", "setting": "[1]; 45-day-old cultures", "value": "enhances"}, {"measurement": "percentage of immature male gametophytes that divided sporophytically", "setting": "[2]", "value": "0-5%"}]}
